From the supplement of paper PMC10307832

Tests used:
Experiment in all cases: relative viability (nuclei count vs DMSO), 5 days (fraction); higher = more cells survive
[1] = compound: C1=CC=C(C(=C1)C2=CC=C(C=C2)C3=CSC4=C3C(=C(C(=O)N4)C#N)O)O + CC(C)C[C@H](NC(=O)[C@H](Cc1ccccc1)NC(=O)c1cnccn1)B(O)O [Bortezomib] (partner 0.002 µM)
Summary of the method: (§1)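 Lung cancer cell lines, seeded in 1536-well plates, were treated the following day by pin tool with a single drug or with five library-drug doses (not always all listed) in √10 steps on top of a fixed anchor-drug dose. Cells were fixed and nuclei stained in one step after 5 days, and nuclei were counted. Relative viability is the nuclei count for treated wells divided by that for vehicle wells, reported as medians of duplicate plates.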

[2] = compound: C1=CC=C(C(=C1)C2=CC=C(C=C2)C3=CSC4=C3C(=C(C(=O)N4)C#N)O)O + C[C@]1(O)C[C@@H](c2nc(-c3ccc4ccc(-c5ccccc5)nc4c3)c3c(N)nccn32)C1 [Linsitinib] (partner 1 µM)
Summary of the method: as §1

TGX 221 + Pemetrexed = compound: CC1=CN2C(=O)C=C(N=C2C(=C1)C(C)NC3=CC=CC=C3)N4CCOCC4 [TGX 221] + Nc1nc2[nH]cc(CCc3ccc(C(=O)N[C@@H](CCC(=O)O)C(=O)O)cc3)c2c(=O)[nH]1 [Pemetrexed] (partner 0.2 µM)
Summary of the method: as §1

Ricolinostat + OSI-027 = compound: O=C(CCCCCCNC(=O)c1cnc(N(c2ccccc2)c2ccccc2)nc1)NO [Ricolinostat] + COc1cccc2cc(-c3nc([C@H]4CC[C@H](C(=O)O)CC4)n4ncnc(N)c34)[nH]c12 [OSI-027] (partner 0.5 µM)
Summary of the method: as §1

Cell Line	relative viability ([1]; first compound 0.08 µM)	relative viability ([1]; first compound 0.253 µM)	relative viability ([1]; first compound 0.8 µM)	relative viability ([1]; first compound 2.53 µM)	relative viability ([1]; first compound 8 µM)	relative viability ([2]; first compound 0.08 µM)	relative viability ([2]; first compound 0.253 µM)	relative viability ([2]; first compound 0.8 µM)	relative viability ([2]; first compound 2.53 µM)	relative viability ([2]; first compound 8 µM)	relative viability (TGX 221 + Pemetrexed; first compound 0.08 µM)	relative viability (TGX 221 + Pemetrexed; first compound 0.253 µM)	relative viability (TGX 221 + Pemetrexed; first compound 0.8 µM)	relative viability (TGX 221 + Pemetrexed; first compound 2.53 µM)	relative viability (TGX 221 + Pemetrexed; first compound 8 µM)	relative viability (Ricolinostat + OSI-027; first compound 0.08 µM)	relative viability (Ricolinostat + OSI-027; first compound 0.253 µM)	relative viability (Ricolinostat + OSI-027; first compound 0.8 µM)	relative viability (Ricolinostat + OSI-027; first compound 2.53 µM)
HCC-366	1.04	1.14	1.34	0.682	0.642	0.819	0.786	0.795	0.657	0.451	0.158	0.146	0.184	0.165	0.16	0.809	1.05	0.842	0.523
SW 1573	0.823	1.02	1.12	1.04	0.88	0.812	0.875	0.951	0.834	0.721	0.781	0.788	0.807	0.789	0.725	0.588	0.612	0.647	0.501
HCC-827	0.967	1.05	1	1.08	1.07	1.02	1.04	0.995	0.993	0.955	0.264	0.294	0.272	0.248	0.249	0.687	0.83	0.721	0.841
EMC-BAC-2	0.995	1.25	1.15	1.05	0.957	0.759	0.853	0.837	0.811	0.77	0.468	0.43	0.428	0.464	0.463	0.353	0.363	0.343	0.271
NCI-H2023	1.16	1.03	0.637	0.887	0.908	0.671	0.713	0.591	0.605	0.592	0.263	0.205	0.223	0.214	0.189	–	0.446	0.343	0.377
NCI-H1993	1.03	1.08	1.08	1.14	0.979	0.617	0.882	0.713	0.709	0.802	0.567	0.545	0.632	0.604	0.246	–	0.532	0.648	0.466
COR-L 105	0.767	0.78	0.819	0.779	0.58	0.964	0.781	0.924	0.957	0.953	1.1	1.08	0.857	1	0.81	–	0.641	0.72	0.731
NCI-H596	0.715	1.63	1.2	0.926	0.933	0.967	1.17	1.13	1.1	0.733	0.441	0.419	0.473	0.452	0.479	0.801	0.82	0.845	0.5
NCI-H650	0.583	0.833	0.772	0.936	0.617	0.857	0.817	0.737	0.914	0.716	0.87	0.894	0.919	0.882	0.926	0.405	0.585	0.503	0.374
NCI-H520	0.496	0.494	0.903	0.506	0.492	0.712	1.08	1.26	1.21	0.829	0.592	0.459	0.476	0.457	0.358	–	0.259	0.231	0.228
NCI-H322M	1.13	1.22	1.24	1.34	1.11	1.07	0.587	0.874	0.909	0.787	0.58	0.619	0.604	0.579	0.565	–	0.598	0.532	0.51
HCC-78	0.529	0.771	0.536	0.417	0.428	0.534	0.73	0.551	0.484	0.462	0.827	0.928	0.771	0.877	0.921	–	0.372	0.341	0.395
NCI-H1563	0.543	0.953	0.909	0.785	0.759	1.16	1.06	1.11	1.23	1.31	0.646	0.705	0.534	0.726	0.733	0.759	0.731	0.774	0.62
NCI-H2228	0.973	0.922	1.07	0.959	0.73	0.623	0.627	0.686	0.648	0.666	0.357	0.369	0.356	0.313	0.332	0.593	0.496	0.616	0.286
NCI-H2009	1.07	1.05	0.827	0.967	0.832	1.14	1.24	1.17	1.15	1.15	0.943	1.06	1.08	1.1	0.938	0.447	0.565	0.553	0.567
